Experimental data as given in paper PMC6886721 (Journal of medicinal chemistry, 2019).
Where a SMILES comes first, the peptide text is derived from it. [ ]: non-standard residue; d: D form. Dab = NCC[C@H](N)C(=O)O; Dap = NC[C@H](N)C(=O)O

Tests used:
human red blood cells = assay: Hemolytic activity; format: cell-based; settings: for HC50: pH 7.4
[1] = Circular dichroism, helical structure; format: physicochemical; settings: for [θ]222, aqueous pH 7 / [θ]222, 50% TFE: CD, 222 nm; for [θ]222, aqueous pH 7 / [θ]222, 50% TFE / % helix, aqueous pH 7: 25 °C; for [θ]222, aqueous pH 7: 100 mM KCl, 50 mM Na2HPO4/NaH2PO4, pH 7.0; for [θ]222, 50% TFE: pH 7.0 buffer containing 50% TFE; for % helix induced: increase in molar ellipticity (as a percentage) in the presence of 50% TFE; for % helix, aqueous pH 7: relative to the molar ellipticity of the peptide in 50% TFE
[2] = RP-HPLC temperature profiling, self-association; format: physicochemical; settings: temperature at which maximum retention time is observed over 5–77 °C, Zorbax 300 SB-C8, 0.5% acetonitrile/min, 0.30 mL/min, TFA pH 2

| SMILES | HC50 fold improvement (human red blood cells) | HC50 (human red blood cells) | [θ]222, aqueous pH 7 [1] | [θ]222, 50% TFE [1] | % helix induced [1] | % helix, aqueous pH 7 [1] | Tp [2] |
| --- | --- | --- | --- | --- | --- | --- | --- |
| CC(=O)N[C@H](CCCCN)C(=O)N[C@H](CC(C)C)C(=O)N[C@@H](CCN)C(=O)N[C@H](CO)C(=O)N[C@H](CC(C)C)C(=O)N[C@H](CC(C)C)C(=O)N[C@@H](CCN)C(=O)N[C@@H](C(=O)N[C@H](CC(C)C)C(=O)N[C@H](CO)C(=O)N[C@@H](CCN)C(=O)N[C@H](C)C(=O)N[C@H](CCCCN)C(=O)N[C@H](C)C(=O)N[C@H](C)C(=O)N[C@H](CCCCN)C(=O)N[C@H](CC(C)C)C(=O)N[C@@H](CCN)C(=O)N[C@@H](C(=O)N[C@H](CC(C)C)C(=O)N[C@H](CC(C)C)C(=O)N[C@@H](CCN)C(=O)N[C@H](C)C(=O)N[C@H](CC(C)C)C(=O)N[C@H](CO)C(=O)N[C@@H](CCN)C(N)=O)[C@H](C)O)[C@H](C)O [D86(Lys^1-6 Dab-1)] (Ac-[dK][dL][Dab][dS][dL][dL][Dab][dT][dL][dS][Dab][dA][dK][dA][dA][dK][dL][Dab][dT][dL][dL][Dab][dA][dL][dS][Dab]-NH2) | >186 | >2000 µg/mL | 1769 mdeg cm^2/(dmol × res) | 27923 mdeg cm^2/(dmol × res) | 94% | 6% | 5.0 °C |
| CC(=O)N[C@H](CCCCN)C(=O)N[C@H](CC(C)C)C(=O)N[C@@H](CN)C(=O)N[C@H](CO)C(=O)N[C@H](CC(C)C)C(=O)N[C@H](CC(C)C)C(=O)N[C@@H](CN)C(=O)N[C@@H](C(=O)N[C@H](CC(C)C)C(=O)N[C@H](CO)C(=O)N[C@@H](CN)C(=O)N[C@H](C)C(=O)N[C@H](C)C(=O)N[C@H](C)C(=O)N[C@H](C)C(=O)N[C@H](C)C(=O)N[C@H](CC(C)C)C(=O)N[C@@H](CN)C(=O)N[C@@H](C(=O)N[C@H](CC(C)C)C(=O)N[C@H](CC(C)C)C(=O)N[C@@H](CN)C(=O)N[C@H](C)C(=O)N[C@H](CC(C)C)C(=O)N[C@H](CO)C(=O)N[C@@H](CN)C(N)=O)[C@H](C)O)[C@H](C)O [D105(K13A/K16A)-(Lys^1-6 Dap-1)] (Ac-[dK][dL][Dap][dS][dL][dL][Dap][dT][dL][dS][Dap][dA][dA][dA][dA][dA][dL][Dap][dT][dL][dL][Dap][dA][dL][dS][Dap]-NH2) |  |  | 9577 mdeg cm^2/(dmol × res) | 18038 mdeg cm^2/(dmol × res) | 47% | 53% | 39.0 °C |
| CC(=O)N[C@H](CCCCN)C(=O)N[C@H](CC(C)C)C(=O)N[C@@H](CCN)C(=O)N[C@H](CO)C(=O)N[C@H](CC(C)C)C(=O)N[C@H](CC(C)C)C(=O)N[C@@H](CCN)C(=O)N[C@@H](C(=O)N[C@H](CC(C)C)C(=O)N[C@H](CO)C(=O)N[C@@H](CCN)C(=O)N[C@H](C)C(=O)N[C@H](C)C(=O)N[C@H](C)C(=O)N[C@H](C)C(=O)N[C@H](C)C(=O)N[C@H](CC(C)C)C(=O)N[C@@H](CCN)C(=O)N[C@@H](C(=O)N[C@H](CC(C)C)C(=O)N[C@H](CC(C)C)C(=O)N[C@@H](CCN)C(=O)N[C@H](C)C(=O)N[C@H](CC(C)C)C(=O)N[C@H](CO)C(=O)N[C@@H](CCN)C(N)=O)[C@H](C)O)[C@H](C)O [D86(K13A/K16A)-(Lys^1-6 Dab-1)] (Ac-[dK][dL][Dab][dS][dL][dL][Dab][dT][dL][dS][Dab][dA][dA][dA][dA][dA][dL][Dab][dT][dL][dL][Dab][dA][dL][dS][Dab]-NH2) |  |  | 2308 mdeg cm^2/(dmol × res) | 18731 mdeg cm^2/(dmol × res) | 88% | 12% | 31.0 °C |
| CC(=O)N[C@H](CCCCN)C(=O)N[C@H](CC(C)C)C(=O)N[C@@H](CN)C(=O)N[C@H](CO)C(=O)N[C@H](CC(C)C)C(=O)N[C@H](CC(C)C)C(=O)N[C@@H](CN)C(=O)N[C@@H](C(=O)N[C@H](CC(C)C)C(=O)N[C@H](CO)C(=O)N[C@@H](CN)C(=O)N[C@H](C)C(=O)N[C@H](CCCCN)C(=O)N[C@H](C)C(=O)N[C@H](C)C(=O)N[C@H](CCCCN)C(=O)N[C@H](CC(C)C)C(=O)N[C@@H](CN)C(=O)N[C@@H](C(=O)N[C@H](CC(C)C)C(=O)N[C@H](CC(C)C)C(=O)N[C@@H](CN)C(=O)N[C@H](C)C(=O)N[C@H](CC(C)C)C(=O)N[C@H](CO)C(=O)N[C@@H](CN)C(N)=O)[C@H](C)O)[C@H](C)O [D105(Lys^1-6 Dap-1)] (Ac-[dK][dL][Dap][dS][dL][dL][Dap][dT][dL][dS][Dap][dA][dK][dA][dA][dK][dL][Dap][dT][dL][dL][Dap][dA][dL][dS][Dap]-NH2) | >287 | >3000 µg/mL | 5961 mdeg cm^2/(dmol × res) | 24192 mdeg cm^2/(dmol × res) | 75% | 25% | 16.9 °C |
| CC(=O)N[C@H](CCCCN)C(=O)N[C@H](CC(C)C)C(=O)N[C@@H](CCN)C(=O)N[C@H](CO)C(=O)N[C@H](CC(C)C)C(=O)N[C@H](CC(C)C)C(=O)N[C@@H](CCN)C(=O)N[C@@H](C(=O)N[C@H](CC(C)C)C(=O)N[C@H](CO)C(=O)N[C@@H](CCN)C(=O)N[C@H](C)C(=O)N[C@H](CCCCN)C(=O)N[C@H](C)C(=O)N[C@H](C)C(=O)N[C@H](CCCCN)C(=O)N[C@H](CC(C)C)C(=O)N[C@@H](CCN)C(=O)N[C@@H](C(=O)N[C@H](CC(C)C)C(=O)N[C@H](CC(C)C)C(=O)N[C@@H](CCN)C(=O)N[C@H](C)C(=O)N[C@H](CC(C)C)C(=O)N[C@H](CO)C(=O)N[C@H](CO)C(N)=O)[C@H](C)O)[C@H](C)O [D102(Lys^1Ser^26-5 Dab-1)] (Ac-[dK][dL][Dab][dS][dL][dL][Dab][dT][dL][dS][Dab][dA][dK][dA][dA][dK][dL][Dab][dT][dL][dL][Dab][dA][dL][dS][dS]-NH2) | >177 | >2000 µg/mL |  |  |  |  |  |
